{"source": "ChEMBL document CHEMBL4304782", "about": "“Antioxidant, Anti-inflammatory, and Neuroprotective Effects of Novel Vinyl Sulfonate Compounds as Nrf2 Activator” (ACS Med Chem Lett, 2019)", "molecular_target": "T1, Nuclear factor erythroid 2-related factor 2 (Homo sapiens, UniProt Q16236)", "T1 sequence (Q16236 whole entry)": "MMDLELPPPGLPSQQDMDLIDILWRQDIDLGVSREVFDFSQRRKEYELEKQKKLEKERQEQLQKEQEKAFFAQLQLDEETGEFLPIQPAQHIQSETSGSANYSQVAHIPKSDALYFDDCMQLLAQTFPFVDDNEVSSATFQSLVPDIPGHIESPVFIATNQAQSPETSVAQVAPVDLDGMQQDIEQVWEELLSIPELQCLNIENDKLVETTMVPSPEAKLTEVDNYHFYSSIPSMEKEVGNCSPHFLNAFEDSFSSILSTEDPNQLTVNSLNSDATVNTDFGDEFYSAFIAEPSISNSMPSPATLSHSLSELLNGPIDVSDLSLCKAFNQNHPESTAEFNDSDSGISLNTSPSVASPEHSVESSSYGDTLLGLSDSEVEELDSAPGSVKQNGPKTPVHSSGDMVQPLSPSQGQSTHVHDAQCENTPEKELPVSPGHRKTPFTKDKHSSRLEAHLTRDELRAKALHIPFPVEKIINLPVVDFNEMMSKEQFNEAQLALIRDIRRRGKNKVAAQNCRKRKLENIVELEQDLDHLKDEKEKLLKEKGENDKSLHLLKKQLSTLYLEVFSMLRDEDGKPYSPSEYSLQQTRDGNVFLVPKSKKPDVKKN", "experiment": "Activation of ED-tagged Nrf2 in human U2OS cells co-expressing Keap1 assessed as induction of NRF2 translocation to nucleus after 6 hrs by beta-galactosidase based chemiluminescent assay", "format": "cell-based"}
{"smiles": "COc1ccccc1OS(=O)(=O)/C=C/c1ccc(Cl)cc1", "values": [{"measurement": "EC50", "value": 1330, "unit": "nM"}]}
{"smiles": "COc1ccc(NS(=O)(=O)/C=C/c2ccccc2Cl)cc1", "values": [{"measurement": "EC50", "value": "> 10000", "unit": "nM"}]}
{"smiles": "O=S(=O)(/C=C/c1ccccc1)Nc1ccccc1", "values": [{"measurement": "EC50", "value": "> 10000", "unit": "nM"}]}
{"smiles": "COc1ccc(OS(=O)(=O)/C=C/c2cccc(Cl)c2)cc1", "values": [{"measurement": "EC50", "value": 948, "unit": "nM"}]}
